This is an account of results in ChEMBL document CHEMBL5465560, “Selectivity Literature for EUbOPEN Chemogenomic Library” (2024).

The target of experiment [1] is Mitogen-activated protein kinase kinase kinase kinase 5 (Homo sapiens) (UniProt Q9Y4K4). In words: Selectivity interaction (KinomeScan (DiscoverX)) EUB0001619a MAP4K5. Conditions: at 1 µM.
Experiment [2] deals with Phosphorylase b kinase gamma catalytic chain, skeletal muscle/heart isoform (Homo sapiens) (UniProt Q16816). In words: Selectivity interaction (KinomeScan (DiscoverX)) EUB0001619a PHKG1. The settings on record: at 1 µM.
Experiment [3] has as its target Aurora kinase B (Homo sapiens, UniProt Q96GD4). In words: Selectivity interaction (KinomeScan (DiscoverX)) EUB0000666a AURKB. The settings on record: at 10 µM.
The target in experiment [4] is T1, Ephrin type-A receptor 8 (Homo sapiens) (UniProt P29322).
T1 sequence (whole entry): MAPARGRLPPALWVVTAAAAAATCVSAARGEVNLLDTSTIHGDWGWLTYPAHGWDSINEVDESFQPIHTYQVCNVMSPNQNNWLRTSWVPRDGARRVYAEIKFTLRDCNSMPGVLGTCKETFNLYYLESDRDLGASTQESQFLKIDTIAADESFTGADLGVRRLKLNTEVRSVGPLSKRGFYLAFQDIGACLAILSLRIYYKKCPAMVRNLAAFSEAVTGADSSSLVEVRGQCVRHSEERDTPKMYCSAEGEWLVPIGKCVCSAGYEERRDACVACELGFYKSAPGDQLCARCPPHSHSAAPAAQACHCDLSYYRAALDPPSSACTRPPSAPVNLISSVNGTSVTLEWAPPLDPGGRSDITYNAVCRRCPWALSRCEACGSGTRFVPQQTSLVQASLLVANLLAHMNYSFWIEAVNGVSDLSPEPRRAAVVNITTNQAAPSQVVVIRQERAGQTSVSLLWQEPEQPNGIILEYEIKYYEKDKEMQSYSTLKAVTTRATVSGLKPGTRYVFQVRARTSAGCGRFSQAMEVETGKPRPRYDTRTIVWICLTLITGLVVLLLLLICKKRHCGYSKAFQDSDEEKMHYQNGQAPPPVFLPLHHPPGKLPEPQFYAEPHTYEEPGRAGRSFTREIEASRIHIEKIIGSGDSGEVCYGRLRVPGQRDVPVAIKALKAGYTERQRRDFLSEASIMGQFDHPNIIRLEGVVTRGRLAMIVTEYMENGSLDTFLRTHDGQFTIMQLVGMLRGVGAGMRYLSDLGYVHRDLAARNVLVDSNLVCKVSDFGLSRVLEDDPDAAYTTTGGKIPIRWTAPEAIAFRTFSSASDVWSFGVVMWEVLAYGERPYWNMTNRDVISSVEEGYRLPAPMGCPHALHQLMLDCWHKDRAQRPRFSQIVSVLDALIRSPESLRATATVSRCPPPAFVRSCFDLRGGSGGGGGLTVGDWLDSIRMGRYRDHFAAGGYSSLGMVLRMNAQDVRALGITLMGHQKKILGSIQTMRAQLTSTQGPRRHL
In words: Selectivity interaction (KinomeScan (DiscoverX)) EUB0000607a EPHA8. The settings on record: at 10 µM.

The test system of experiment [5] is Epidermal growth factor receptor (Homo sapiens), P00533 [UNDEFINED MUTATION]. The settings on record: at 10 µM.
Experiment [6] concerns the target NT-3 growth factor receptor (Homo sapiens, UniProt Q16288). The settings on record: at 10 µM.
Experiment [7] has as its target T2, Histone-arginine methyltransferase CARM1 (Homo sapiens) (UniProt Q86X55).
T2 sequence (whole entry): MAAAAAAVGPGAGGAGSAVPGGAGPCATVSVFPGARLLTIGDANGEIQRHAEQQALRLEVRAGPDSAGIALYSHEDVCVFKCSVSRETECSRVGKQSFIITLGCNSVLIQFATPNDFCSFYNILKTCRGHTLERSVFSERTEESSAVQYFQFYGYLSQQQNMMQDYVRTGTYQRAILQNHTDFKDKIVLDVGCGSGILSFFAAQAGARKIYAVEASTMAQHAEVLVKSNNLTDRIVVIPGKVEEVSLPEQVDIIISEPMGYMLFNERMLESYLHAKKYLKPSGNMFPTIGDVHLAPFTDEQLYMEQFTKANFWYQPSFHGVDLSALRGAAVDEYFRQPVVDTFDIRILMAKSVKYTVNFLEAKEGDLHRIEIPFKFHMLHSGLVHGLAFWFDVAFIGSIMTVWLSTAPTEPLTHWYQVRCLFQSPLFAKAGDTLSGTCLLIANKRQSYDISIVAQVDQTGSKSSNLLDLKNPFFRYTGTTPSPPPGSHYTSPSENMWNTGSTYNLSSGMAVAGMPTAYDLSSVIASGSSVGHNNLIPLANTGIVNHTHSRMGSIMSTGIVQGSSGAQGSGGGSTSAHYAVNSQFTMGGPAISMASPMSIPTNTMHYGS
Conditions: KMS-20, at 3 µM.

For experiment [8], the target named is T3, Serine/threonine-protein kinase Sgk1 (Homo sapiens) (UniProt O00141).
T3 sequence (whole entry): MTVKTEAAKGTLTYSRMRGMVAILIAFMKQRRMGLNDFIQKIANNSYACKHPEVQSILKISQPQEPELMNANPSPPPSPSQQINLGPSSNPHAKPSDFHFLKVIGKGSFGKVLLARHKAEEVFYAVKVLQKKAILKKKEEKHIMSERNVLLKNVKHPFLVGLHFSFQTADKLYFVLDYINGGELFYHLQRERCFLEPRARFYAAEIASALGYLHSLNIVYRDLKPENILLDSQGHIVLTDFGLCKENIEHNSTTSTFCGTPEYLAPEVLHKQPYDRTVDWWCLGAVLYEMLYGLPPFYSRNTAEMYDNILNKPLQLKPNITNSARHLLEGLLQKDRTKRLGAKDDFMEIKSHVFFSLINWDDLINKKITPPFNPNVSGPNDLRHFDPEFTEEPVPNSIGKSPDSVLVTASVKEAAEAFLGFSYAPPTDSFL
In words: Selectivity interaction (ProQinase) EUB0000171b SGK1.

Experiment [9] has as its target Serine/threonine-protein kinase 10 (Homo sapiens) (UniProt O94804). In words: Selectivity interaction (Ambit KINOMEscan and KiNATiv profiling in Jurkat cells) EUB0000090b STK10. It counts as cell-based. The settings on record: at 1 µM.
Experiment [10] addresses Mitogen-activated protein kinase kinase kinase 9 (Homo sapiens) (UniProt P80192). In words: Selectivity interaction (KinomeScan (DiscoverX)) EUB0000618a MAP3K9. The settings on record: at 10 µM.
Experiment [11] has as its target Misshapen-like kinase 1 (Homo sapiens, UniProt Q8N4C8). In words: Selectivity interaction (KinomeScan (DiscoverX)) EUB0001079a MINK1. Conditions: at 1 µM.

Mitogen-activated protein kinase kinase kinase kinase 5 (Homo sapiens), sequence (Q9Y4K4 whole entry, looked up, canonical isoform): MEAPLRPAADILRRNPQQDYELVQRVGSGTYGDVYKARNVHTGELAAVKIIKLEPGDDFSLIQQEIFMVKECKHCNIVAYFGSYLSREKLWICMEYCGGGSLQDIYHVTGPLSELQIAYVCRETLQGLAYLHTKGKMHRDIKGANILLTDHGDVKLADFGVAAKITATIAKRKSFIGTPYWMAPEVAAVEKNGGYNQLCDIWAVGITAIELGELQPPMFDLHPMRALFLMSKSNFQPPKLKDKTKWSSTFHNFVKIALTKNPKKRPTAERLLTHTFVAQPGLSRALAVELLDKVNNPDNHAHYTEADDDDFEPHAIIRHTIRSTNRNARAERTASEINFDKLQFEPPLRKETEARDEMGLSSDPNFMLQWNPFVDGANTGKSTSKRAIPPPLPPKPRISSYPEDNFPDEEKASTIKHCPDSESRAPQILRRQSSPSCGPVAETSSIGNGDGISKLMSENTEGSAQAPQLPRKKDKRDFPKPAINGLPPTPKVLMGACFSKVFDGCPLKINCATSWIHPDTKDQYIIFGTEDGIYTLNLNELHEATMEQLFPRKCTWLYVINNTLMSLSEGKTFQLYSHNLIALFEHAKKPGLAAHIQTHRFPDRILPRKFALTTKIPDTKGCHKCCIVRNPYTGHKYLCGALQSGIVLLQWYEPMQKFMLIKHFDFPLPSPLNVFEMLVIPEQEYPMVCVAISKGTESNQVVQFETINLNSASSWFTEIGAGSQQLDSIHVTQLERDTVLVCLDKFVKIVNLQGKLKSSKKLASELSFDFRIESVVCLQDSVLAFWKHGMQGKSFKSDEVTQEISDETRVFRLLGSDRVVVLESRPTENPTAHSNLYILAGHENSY
Serine/threonine-protein kinase 10 (Homo sapiens), sequence (O94804 whole entry, looked up): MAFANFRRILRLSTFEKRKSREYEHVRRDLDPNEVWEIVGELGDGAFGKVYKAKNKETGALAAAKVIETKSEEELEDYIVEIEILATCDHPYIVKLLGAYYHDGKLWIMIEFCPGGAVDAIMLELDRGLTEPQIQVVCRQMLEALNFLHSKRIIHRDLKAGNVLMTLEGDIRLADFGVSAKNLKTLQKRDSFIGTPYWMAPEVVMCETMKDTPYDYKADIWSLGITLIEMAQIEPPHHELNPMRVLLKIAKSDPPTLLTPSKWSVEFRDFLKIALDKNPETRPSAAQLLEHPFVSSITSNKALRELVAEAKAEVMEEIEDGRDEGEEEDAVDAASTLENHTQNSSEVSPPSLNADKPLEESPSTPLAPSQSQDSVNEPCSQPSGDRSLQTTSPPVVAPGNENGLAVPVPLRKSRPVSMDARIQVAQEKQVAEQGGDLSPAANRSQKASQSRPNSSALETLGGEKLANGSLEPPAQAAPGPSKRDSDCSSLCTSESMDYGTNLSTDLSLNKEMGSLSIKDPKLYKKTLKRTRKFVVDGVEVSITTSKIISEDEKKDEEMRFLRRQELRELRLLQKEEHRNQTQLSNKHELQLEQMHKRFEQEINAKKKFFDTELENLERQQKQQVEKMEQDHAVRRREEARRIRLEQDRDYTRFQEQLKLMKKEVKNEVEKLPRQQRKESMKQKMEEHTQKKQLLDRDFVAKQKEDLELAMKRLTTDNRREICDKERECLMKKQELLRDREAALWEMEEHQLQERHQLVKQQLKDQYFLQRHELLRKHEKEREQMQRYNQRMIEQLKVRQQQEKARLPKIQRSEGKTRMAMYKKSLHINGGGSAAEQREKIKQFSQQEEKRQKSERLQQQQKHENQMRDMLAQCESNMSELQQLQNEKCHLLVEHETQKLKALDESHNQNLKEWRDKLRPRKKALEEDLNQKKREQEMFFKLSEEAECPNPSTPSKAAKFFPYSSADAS
NT-3 growth factor receptor, sequence (Q16288 32-839 limits assumed): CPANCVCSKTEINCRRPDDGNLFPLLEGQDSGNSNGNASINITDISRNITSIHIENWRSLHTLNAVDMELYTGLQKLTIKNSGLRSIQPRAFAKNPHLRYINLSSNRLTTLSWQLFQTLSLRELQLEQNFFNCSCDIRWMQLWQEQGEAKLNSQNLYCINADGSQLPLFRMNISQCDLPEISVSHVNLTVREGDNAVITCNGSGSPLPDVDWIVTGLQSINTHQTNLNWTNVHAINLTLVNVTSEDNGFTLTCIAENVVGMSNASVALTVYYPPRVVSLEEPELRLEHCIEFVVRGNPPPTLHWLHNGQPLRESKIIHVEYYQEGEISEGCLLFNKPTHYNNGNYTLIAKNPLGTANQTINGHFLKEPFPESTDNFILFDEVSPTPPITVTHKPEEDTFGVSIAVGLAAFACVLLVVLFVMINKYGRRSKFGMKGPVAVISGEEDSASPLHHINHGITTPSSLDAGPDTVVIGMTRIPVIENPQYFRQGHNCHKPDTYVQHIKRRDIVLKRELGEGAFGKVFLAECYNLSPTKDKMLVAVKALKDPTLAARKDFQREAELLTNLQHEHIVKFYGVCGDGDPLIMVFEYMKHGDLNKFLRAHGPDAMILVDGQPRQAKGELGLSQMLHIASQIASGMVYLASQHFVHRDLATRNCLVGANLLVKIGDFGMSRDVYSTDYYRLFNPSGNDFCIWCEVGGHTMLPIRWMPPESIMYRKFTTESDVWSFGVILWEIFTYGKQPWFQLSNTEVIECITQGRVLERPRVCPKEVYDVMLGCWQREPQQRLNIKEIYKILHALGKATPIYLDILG
Mitogen-activated protein kinase kinase kinase 9 (Homo sapiens), sequence (P80192 whole entry, looked up): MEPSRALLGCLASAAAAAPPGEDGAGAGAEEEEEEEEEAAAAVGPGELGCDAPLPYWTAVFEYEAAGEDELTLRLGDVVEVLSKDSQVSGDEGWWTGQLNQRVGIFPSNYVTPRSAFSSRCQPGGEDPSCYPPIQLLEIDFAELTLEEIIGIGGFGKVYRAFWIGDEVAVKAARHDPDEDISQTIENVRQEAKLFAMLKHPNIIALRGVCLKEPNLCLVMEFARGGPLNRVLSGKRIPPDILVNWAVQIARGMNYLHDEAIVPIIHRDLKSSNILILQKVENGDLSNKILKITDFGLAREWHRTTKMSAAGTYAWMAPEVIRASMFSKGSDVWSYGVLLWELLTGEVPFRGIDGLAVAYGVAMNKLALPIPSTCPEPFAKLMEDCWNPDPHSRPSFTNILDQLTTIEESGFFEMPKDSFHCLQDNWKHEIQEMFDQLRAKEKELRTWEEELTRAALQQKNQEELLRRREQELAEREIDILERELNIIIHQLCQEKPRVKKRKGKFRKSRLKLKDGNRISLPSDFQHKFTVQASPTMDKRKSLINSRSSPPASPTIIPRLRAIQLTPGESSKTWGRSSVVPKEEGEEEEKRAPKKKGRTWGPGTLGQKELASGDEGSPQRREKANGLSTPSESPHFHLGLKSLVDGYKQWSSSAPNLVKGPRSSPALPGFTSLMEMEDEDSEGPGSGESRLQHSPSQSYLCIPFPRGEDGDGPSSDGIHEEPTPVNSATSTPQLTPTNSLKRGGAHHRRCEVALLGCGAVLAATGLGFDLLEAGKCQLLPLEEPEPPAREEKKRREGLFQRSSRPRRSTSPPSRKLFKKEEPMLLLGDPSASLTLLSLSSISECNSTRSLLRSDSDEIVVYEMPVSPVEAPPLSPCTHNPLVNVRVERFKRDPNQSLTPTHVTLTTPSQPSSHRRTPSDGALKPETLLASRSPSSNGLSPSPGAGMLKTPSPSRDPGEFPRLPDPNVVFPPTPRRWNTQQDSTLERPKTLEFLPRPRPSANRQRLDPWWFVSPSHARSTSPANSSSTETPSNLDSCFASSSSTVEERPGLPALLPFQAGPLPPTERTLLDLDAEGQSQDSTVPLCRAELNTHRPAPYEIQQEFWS
Epidermal growth factor receptor (Homo sapiens), P00533 [UNDEFINED MUTATION], sequence (P00533 whole entry, looked up, change not shown): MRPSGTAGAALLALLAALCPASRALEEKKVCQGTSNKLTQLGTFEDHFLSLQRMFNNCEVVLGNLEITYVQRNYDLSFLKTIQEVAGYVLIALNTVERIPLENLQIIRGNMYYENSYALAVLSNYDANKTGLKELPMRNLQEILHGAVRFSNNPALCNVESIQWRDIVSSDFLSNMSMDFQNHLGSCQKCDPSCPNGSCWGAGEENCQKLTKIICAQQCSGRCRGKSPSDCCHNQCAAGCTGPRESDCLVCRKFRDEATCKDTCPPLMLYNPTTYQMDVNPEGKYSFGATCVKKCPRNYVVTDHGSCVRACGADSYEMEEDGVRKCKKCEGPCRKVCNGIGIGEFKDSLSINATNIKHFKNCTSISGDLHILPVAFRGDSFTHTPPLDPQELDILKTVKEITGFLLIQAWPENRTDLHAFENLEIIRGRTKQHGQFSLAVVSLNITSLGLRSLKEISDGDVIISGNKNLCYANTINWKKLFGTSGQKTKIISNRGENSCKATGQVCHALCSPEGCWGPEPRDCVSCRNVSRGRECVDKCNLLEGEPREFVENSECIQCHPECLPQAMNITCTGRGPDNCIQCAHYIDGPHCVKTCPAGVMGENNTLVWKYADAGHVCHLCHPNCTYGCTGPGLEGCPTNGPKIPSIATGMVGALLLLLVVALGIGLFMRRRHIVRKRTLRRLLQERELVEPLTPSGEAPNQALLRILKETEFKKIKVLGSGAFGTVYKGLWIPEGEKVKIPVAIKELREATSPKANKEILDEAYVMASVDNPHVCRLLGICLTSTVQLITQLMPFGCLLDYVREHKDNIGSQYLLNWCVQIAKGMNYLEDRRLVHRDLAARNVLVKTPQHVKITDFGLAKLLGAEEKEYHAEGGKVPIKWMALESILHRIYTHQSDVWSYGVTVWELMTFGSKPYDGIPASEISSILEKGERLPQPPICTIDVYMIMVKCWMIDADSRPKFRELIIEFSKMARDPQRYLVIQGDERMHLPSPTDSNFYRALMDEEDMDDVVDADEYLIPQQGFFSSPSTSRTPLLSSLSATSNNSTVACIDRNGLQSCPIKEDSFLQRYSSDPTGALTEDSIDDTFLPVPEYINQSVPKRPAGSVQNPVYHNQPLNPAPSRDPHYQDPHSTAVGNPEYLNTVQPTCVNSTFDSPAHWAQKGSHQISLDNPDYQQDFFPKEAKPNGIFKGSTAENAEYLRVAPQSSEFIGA

In the case of `N#Cc1cccc(-c2c[nH]c3ncnc(N4CCOCC4)c23)c1`, the % of control in [1] was 53%; in experiment [2], 81%. The compound `O=C(NOC[C@H](O)CO)c1ccc(F)c(F)c1Nc1ccc(I)cc1F` returned a % of control in experiment [3] of 99%.

In experiment [4], `CNC(=O)Nc1ccc(-c2nc(N3CC4CCC(C3)O4)c3cnn(C4CCC5(CC4)OCCO5)c3n2)cc1` came in with a % of control of 81%.

On to `Cc1cc([C@@H](C)Nc2ccccc2C(=O)O)c2nc(N3CCOCC3)cc(=O)n2c1` [AZD-6482], for which the values for the % of control in [5] and in experiment [6] were 100% and 98%, respectively.

Take `CNCCN1CCC(c2cc(CN(C)C(=O)c3cccc(Oc4ccccc4)c3)ccn2)CC1`: the % of growth rate in experiment [7] was -22.5%. Take `C=CC(=O)Nc1cccc(C(=O)Nc2ccc(Nc3cc(-c4[nH]c(SC)nc4C)ccn3)cc2)c1`: the results for the % of control in experiment [8] (at 1 µM) and in experiment [8] (at 5 µM) were 49% and 15%, respectively. In the case of `CN(C)C/C=C/C(=O)Nc1ccc(C(=O)N2CCCC(Nc3ncc(Cl)c(-c4c[nH]c5ccccc45)n3)C2)cc1` (configuration not stated), the % of control in [9] turned out to be 80%. Compound `O[C@H]1CC[C@H](Nc2ncc3nc(Nc4c(F)cc(F)cc4F)n([C@H]4CCOC4)c3n2)CC1` came in with a % of control in experiment [10] of 100%. Turning to `Nc1cnc(N2CCc3cc(S(=O)(=O)Nc4c(F)cc(Cl)cc4F)cc(N4CCCC4=O)c32)nc1` [TP-020n], in experiment [11], the % of control was 100%.
